Like-named read-outs stand apart in the source and are kept apart here.
How the values were obtained:
Tyk2 kinase domain (DH1) = Tyk2 kinase domain (DH1) (Homo sapiens (Human), UniProt P29597); experiment: Tyk2 Radioactive Kinase Assay; assay type: biochemical; details: for inhibition at 10 µM: read-out: Tyk2 JH1% Inhibition @ 10 μM
Outline: (§1)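 Read-out is percent inhibition from a radioactive kinase reaction, measured with compound at 10 μM.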

[1] = target: human TYK2 (JH2domain-pseudokinase) (Homo sapiens (Human), UniProt P29597); experiment: TYK2 JH2 Domain Binding Assay (KINOMEscan)
human TYK2 (JH2domain-pseudokinase), sequence (P29597 556-888): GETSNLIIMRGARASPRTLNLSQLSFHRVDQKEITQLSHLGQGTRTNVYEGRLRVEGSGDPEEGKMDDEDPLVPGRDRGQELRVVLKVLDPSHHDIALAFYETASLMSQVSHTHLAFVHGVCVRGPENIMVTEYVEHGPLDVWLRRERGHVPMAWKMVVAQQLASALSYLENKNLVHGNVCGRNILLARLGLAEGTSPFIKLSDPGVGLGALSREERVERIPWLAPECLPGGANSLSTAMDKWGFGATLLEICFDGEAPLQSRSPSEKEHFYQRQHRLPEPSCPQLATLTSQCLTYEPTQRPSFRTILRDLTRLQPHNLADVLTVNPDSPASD
Outline: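 Displacement of a DNA-tagged TYK2 JH2 fusion (human, aa G556–D888, HEK293 extract, <0.1 nM) from ligand-coated beads over 1 h at RT; binding buffer PBS/0.05% Tween 20/10 mM DTT/0.1% BSA.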

[2] = target: JAK2/JAK2 homdimeric complex (Homo sapiens (Human), UniProt O60674); experiment: GM-CSF Induced pSTAT5 in Human PBMC; assay type: cell-based; details: GM-CSF 5 ng/mL for 20 minutes, pSTAT5 by MSD, read-out: PBMC_GMCSF_pSTAT5 IC50
JAK2/JAK2 homdimeric complex, sequence (O60674 whole entry): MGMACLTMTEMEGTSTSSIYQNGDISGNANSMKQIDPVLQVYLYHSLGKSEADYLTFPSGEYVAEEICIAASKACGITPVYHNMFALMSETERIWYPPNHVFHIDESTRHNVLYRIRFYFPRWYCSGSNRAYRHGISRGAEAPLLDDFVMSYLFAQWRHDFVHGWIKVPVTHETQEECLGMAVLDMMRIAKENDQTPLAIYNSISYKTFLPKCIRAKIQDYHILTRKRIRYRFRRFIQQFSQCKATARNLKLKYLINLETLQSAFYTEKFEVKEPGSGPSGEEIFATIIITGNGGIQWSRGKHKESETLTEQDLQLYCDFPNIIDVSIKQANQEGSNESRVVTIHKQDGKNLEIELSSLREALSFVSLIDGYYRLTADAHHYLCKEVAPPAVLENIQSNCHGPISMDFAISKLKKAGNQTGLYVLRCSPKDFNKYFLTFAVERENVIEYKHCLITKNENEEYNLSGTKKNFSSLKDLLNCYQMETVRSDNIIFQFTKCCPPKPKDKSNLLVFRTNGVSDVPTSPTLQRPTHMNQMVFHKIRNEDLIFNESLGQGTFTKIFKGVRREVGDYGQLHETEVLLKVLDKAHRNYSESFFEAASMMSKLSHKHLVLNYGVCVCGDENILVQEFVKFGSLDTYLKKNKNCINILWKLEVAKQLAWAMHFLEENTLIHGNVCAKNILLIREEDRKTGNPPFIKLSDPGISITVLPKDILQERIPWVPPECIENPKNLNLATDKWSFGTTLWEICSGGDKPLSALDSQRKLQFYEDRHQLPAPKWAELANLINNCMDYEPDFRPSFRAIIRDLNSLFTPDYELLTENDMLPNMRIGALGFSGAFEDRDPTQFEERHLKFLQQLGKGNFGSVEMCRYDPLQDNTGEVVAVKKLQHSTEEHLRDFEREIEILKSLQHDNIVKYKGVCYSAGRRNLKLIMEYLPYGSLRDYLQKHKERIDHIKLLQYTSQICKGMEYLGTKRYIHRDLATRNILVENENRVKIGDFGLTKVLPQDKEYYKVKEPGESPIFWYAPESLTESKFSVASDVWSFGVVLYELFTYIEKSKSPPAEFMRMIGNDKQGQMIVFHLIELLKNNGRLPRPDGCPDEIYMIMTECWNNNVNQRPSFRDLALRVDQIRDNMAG
JAK2/JAK2 homdimeric complex, sequence (P32927 17-897 partner): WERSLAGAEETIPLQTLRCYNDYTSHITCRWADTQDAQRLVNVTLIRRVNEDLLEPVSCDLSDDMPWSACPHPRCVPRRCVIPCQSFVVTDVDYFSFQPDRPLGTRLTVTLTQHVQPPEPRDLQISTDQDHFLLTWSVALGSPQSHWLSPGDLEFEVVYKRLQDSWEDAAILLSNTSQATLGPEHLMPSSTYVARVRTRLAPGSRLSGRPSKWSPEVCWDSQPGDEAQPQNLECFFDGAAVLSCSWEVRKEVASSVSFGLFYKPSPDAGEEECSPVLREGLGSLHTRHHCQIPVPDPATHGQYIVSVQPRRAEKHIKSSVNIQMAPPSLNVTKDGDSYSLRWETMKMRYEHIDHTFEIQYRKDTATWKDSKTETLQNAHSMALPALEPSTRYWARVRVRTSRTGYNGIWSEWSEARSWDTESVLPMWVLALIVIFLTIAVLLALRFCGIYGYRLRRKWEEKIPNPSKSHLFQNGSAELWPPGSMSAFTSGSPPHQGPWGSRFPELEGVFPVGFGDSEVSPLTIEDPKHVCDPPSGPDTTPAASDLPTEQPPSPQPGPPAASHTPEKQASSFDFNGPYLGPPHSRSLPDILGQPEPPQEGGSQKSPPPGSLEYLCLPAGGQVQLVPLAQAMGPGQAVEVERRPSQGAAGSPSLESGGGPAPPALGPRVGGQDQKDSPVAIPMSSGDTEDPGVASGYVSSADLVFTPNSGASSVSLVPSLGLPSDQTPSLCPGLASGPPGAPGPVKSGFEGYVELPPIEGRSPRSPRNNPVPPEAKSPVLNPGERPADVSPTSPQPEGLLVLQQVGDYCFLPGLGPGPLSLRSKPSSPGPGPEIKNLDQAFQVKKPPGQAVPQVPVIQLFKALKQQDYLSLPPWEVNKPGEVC

[3] = target: Tyk2/JAK2 (heterodimeric complex) (Homo sapiens (Human), UniProt P29597); experiment: IL-12 Induced pSTAT4 in Human PBMC; assay type: cell-based; details: 1.7 ng/mL IL-12
Tyk2/JAK2 (heterodimeric complex), sequence (P29597 whole entry, other chains not shown): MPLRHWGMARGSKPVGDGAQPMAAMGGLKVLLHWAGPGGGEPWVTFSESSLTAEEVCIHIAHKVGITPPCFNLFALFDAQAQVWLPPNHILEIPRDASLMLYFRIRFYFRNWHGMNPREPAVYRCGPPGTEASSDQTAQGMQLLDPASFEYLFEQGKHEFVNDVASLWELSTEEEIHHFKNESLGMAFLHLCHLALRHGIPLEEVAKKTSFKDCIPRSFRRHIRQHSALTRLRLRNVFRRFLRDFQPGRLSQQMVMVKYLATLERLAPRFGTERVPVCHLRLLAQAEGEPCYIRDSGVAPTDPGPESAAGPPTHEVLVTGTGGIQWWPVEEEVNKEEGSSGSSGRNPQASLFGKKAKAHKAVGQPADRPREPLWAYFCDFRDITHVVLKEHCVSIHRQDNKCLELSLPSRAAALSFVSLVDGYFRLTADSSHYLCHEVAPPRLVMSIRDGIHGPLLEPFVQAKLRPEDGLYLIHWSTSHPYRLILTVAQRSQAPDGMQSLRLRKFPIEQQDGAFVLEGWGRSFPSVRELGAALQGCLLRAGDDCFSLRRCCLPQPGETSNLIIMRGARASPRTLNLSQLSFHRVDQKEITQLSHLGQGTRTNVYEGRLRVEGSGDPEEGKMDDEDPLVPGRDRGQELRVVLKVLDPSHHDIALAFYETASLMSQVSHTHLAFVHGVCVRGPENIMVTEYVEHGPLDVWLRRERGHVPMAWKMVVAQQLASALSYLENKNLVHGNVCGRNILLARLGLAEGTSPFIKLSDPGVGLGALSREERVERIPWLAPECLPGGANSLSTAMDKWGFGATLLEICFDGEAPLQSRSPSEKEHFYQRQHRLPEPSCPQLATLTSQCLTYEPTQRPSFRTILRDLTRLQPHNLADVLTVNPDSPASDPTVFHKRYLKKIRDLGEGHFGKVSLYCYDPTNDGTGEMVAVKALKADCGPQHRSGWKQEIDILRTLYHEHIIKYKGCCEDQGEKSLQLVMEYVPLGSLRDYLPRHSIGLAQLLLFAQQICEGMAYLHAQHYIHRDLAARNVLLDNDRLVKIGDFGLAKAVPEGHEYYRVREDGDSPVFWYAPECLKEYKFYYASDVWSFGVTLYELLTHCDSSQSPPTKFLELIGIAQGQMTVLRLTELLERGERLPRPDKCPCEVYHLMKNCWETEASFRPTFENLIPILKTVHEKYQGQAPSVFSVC
Description: The IL-12 Induced pSTAT4 assay evaluates the inhibition of IL-12 induced STAT4 phophorylation mediated by Tyk2/JAK2 (heterodimeric complex).

JAK2 kinase domain (JH1) = JAK2 kinase domain (JH1) (Homo sapiens (Human), UniProt O60674); experiment: JAK2 Radioactive Kinase Assay; assay type: biochemical; details: for inhibition at 10 µM: read-out: JAK2 JH1% Inhibition @ 10 μM
JAK2 kinase domain (JH1), sequence (O60674 849-1124): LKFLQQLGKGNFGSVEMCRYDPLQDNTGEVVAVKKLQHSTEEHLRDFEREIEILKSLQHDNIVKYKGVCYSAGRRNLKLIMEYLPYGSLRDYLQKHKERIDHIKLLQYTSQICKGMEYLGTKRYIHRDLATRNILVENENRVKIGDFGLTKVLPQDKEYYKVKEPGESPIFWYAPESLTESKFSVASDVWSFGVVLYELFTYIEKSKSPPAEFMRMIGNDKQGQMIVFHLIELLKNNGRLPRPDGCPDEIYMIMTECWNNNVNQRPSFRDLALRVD
Outline: as §1

Tyk2 kinase domain (DH1), sequence (P29597 897-1176): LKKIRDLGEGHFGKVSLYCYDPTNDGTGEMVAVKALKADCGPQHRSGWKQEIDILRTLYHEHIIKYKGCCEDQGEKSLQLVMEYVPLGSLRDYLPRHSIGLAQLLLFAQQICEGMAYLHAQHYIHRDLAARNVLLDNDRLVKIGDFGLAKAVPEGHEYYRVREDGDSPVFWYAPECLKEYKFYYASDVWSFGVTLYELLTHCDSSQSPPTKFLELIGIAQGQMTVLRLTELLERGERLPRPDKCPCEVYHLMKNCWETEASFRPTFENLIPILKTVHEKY

inhibition at 10 µM (Tyk2 kinase domain (DH1); compound at 10 μM, ATP 10 μM) | Kd [1] | IC50 [2] | IC50 [3] | inhibition at 10 µM (JAK2 kinase domain (JH1); compound at 10 μM, ATP 10 μM) | inhibition at 10 µM (Tyk2 kinase domain (DH1); 10 μM compound, 10 μM ATP) | inhibition at 10 µM (JAK2 kinase domain (JH1); 10 μM compound, 10 μM ATP) | SMILES | Tyk2 JH1% Inhibition @ 10 μM (Tyk2 kinase domain (DH1); 10 μM compound, 10 μM ATP) | JAK2 JH1% Inhibition @ 10 μM (JAK2 kinase domain (JH1); 10 μM compound, 10 μM ATP)
< 50% | < 0.2 nM | > 50000 nM | < 100 nM | < 50% | – | – | CNc1cc(Nc2cc(Cl)cn([C@@H]3CCCOC3)c2=O)nc2c(C(=O)NC3CC3)cnn12 [I-783] | – | –
< 50% | < 0.2 nM | > 12500 nM | < 100 nM | < 50% | – | – | CNc1cc(Nc2cc(Cl)cn(C3CCN(C)CC3)c2=O)nc2c(C(=O)N[C@@H]3C[C@@H]3F)cnn12 [I-789] | – | –
< 50% | < 0.2 nM | > 12500 nM | < 100 nM | < 50% | – | – | CNc1cc(Nc2cccn(-c3ocnc3C)c2=O)nc2c(C(=O)N[C@@H]3C[C@@H]3F)cnn12 [I-790] | – | –
< 50% | < 0.2 nM | > 12500 nM | < 100 nM | < 50% | – | – | CNc1cc(Nc2cccn(-c3ccccn3)c2=O)nc2c(C(=O)N[C@H]3CC[C@H]3O)cnn12 [I-805] | – | –
– | < 0.2 nM | > 50000 nM | < 100 nM | – | < 50% | < 50% | CNc1cc(Nc2cccn([C@H]3[C@@H]4COC[C@@H]43)c2=O)nc2c(C(=O)N[C@@H]3C[C@@H]3F)cnn12 [I-811] | – | –
– | < 0.2 nM | > 50000 nM | < 100 nM | – | < 50% | < 50% | CNc1cc(Nc2cc(Cl)cn([C@@H]3CCCN(C)C3)c2=O)nc2c(C(=O)NC3CC3)cnn12 [I-819] | – | –
– | < 0.2 nM | > 12500 nM | < 100 nM | – | < 50% | < 50% | CNc1cc(Nc2cc(Cl)cn([C@H]3CCCN(C)C3)c2=O)nc2c(C(=O)NC3CC3)cnn12 [I-820] | – | –
– | < 0.2 nM | > 50000 nM | < 100 nM | – | < 50% | < 50% | CNc1cc(Nc2cc(Cl)cn(C3CCOCC3)c2=O)nc2c(C(=O)N[C@@H]3CC[C@H]3O)cnn12 [I-825] | – | –
– | < 0.2 nM | > 50000 nM | 100 to 500 nM | – | < 50% | < 50% | CNc1cc(Nc2cccc(N3CCO[C@]4(CCOC4)C3)n2)nc2c(C(=O)NC3CC3)cnn12 [I-827] | – | –
– | < 0.2 nM | > 50000 nM | < 100 nM | – | < 50% | < 50% | CNc1cc(Nc2cccn([C@H]3CC[C@H](OC)CC3)c2=O)nc2c(C(=O)NC[C@H](C)CO)cnn12 [I-829] | – | –
– | < 0.2 nM | > 50000 nM | < 100 nM | – | < 50% | < 50% | CNc1cc(Nc2cccn([C@@H]3CCC[C@H](OC)C3)c2=O)nc2c(C(=O)N[C@@H]3C[C@@H]3F)cnn12 [I-840] | – | –
– | < 0.2 nM | > 50000 nM | < 100 nM | – | < 50% | < 50% | CNc1cc(-c2cn(C(C)C)c3ncccc23)nc2c(C(=O)N[C@@H]3COC[C@@H]3O)cnn12 [I-842, N-((3R,4R)-4-hydroxytetrahydrofuran-3-yl)-5-(1-isopropyl-1H-pyrrolo[2,3-b]pyridin-3-yl)-7-(methylamino)pyrazolo[1,5-a]pyrimidine-3-carboxamide] | – | –
– | < 0.2 nM | > 50000 nM | 100 to 500 nM | – | < 50% | < 50% | CNc1cc(Nc2cccn(C3CCN(CCF)CC3)c2=O)nc2c(C(=O)NCC(C)(C)CO)cnn12 [I-847] | – | –
– | < 0.2 nM | > 50000 nM | 100 to 500 nM | – | < 50% | < 50% | CNc1cc(Nc2cccn(C3CCCN(CCF)C3)c2=O)nc2c(C(=O)N[C@@H]3C[C@@H]3F)cnn12 (some centres unmarked) [I-849] | – | –
– | < 0.2 nM | > 50000 nM | < 100 nM | – | < 50% | < 50% | CNc1cc(Nc2cc(Cl)cn([C@H]3CCCN(C)C3)c2=O)nc2c(C(=O)N[C@@H]3C[C@@H]3F)cnn12 [I-854] | – | –
– | < 0.2 nM | > 50000 nM | < 100 nM | – | < 50% | < 50% | CNc1cc(Nc2cccc(-c3cn(C)nc3F)n2)nc2c(C(=O)N[C@@H]3C[C@@H]3F)cnn12 [I-860] | – | –

inhibition at 10 µM (Tyk2 kinase domain (DH1); compound at 10 μM, ATP 10 μM) | Kd [1] | IC50 [2] | IC50 [3] | inhibition at 10 µM (JAK2 kinase domain (JH1); compound at 10 μM, ATP 10 μM) | inhibition at 10 µM (Tyk2 kinase domain (DH1); 10 μM compound, 10 μM ATP) | inhibition at 10 µM (JAK2 kinase domain (JH1); 10 μM compound, 10 μM ATP) | SMILES | Tyk2 JH1% Inhibition @ 10 μM (Tyk2 kinase domain (DH1); 10 μM compound, 10 μM ATP) | JAK2 JH1% Inhibition @ 10 μM (JAK2 kinase domain (JH1); 10 μM compound, 10 μM ATP)
– | < 0.2 nM | > 12500 nM | < 100 nM | – | < 50% | < 50% | CNc1cc(Nc2cc(Cl)cn(C3CCN(C)CC3)c2=O)nc2c(C(=O)NC3CC3)cnn12 [I-883] | – | –
– | < 0.2 nM | > 300 nM | < 100 nM | – | < 50% | < 50% | CNc1cc(-c2cn(CCN3CCOCC3)c3ncccc23)nc2c(C(=O)N[C@H]3CC[C@@H]3OC)cnn12 [I-886] | – | –
– | < 0.2 nM | > 50000 nM | < 100 nM | – | < 50% | < 50% | CNC(=O)c1occc1Nc1cc(NC)n2ncc(C(=O)NC3CC3)c2n1 [I-887] | – | –
– | < 0.2 nM | > 50000 nM | < 100 nM | – | < 50% | < 50% | CNC(=O)c1occc1Nc1cc(NC)n2ncc(C(=O)N[C@@H]3C[C@@H]3F)c2n1 [I-888, N-((1R,2S)-2-fluorocyclopropyl)-7-(methylamino)-5-((2-(methylcarbamoyl)furan-3-yl)amino)pyrazolo[1,5-a]pyrimidine-3-carboxamide] | – | –
– | < 0.2 nM | > 50000 nM | < 100 nM | – | < 50% | < 50% | CNc1cc(Nc2cccn3ccnc23)nc2c(C(=O)NC3CC3)cnn12 [I-891] | – | –
– | < 0.2 nM | > 12500 nM | < 100 nM | – | < 50% | < 50% | CNc1cc(Nc2cccn3ccnc23)nc2c(C(=O)N[C@@H]3C[C@@H]3F)cnn12 [I-892] | – | –
– | < 0.2 nM | > 50000 nM | < 100 nM | – | < 50% | < 50% | CNC(=O)c1nscc1Nc1cc(NC)n2ncc(C(=O)N[C@@H]3C[C@@H]3F)c2n1 [I-914] | – | –
– | < 0.2 nM | > 50000 nM | < 100 nM | – | < 50% | < 50% | CNc1cc(Nc2cccn(C(C)C)c2=O)nc2c(C(=O)N[C@@H]3CC[C@H]3O)cnn12 [I-918] | – | –
– | < 0.2 nM | > 50000 nM | < 100 nM | – | < 50% | < 50% | CNc1cc(Nc2cc(Cl)cn(C3CCN(C)CC3)c2=O)nc2c(C(=O)N[C@@H]3CC[C@H]3O)cnn12 [I-930] | – | –
– | < 0.2 nM | > 50000 nM | < 100 nM | – | < 50% | < 50% | CNc1cc(Nc2cccn([C@@H]3CCC[C@H](OC)C3)c2=O)nc2c(C(=O)NCC(C)(C)CO)cnn12 [I-951] | – | –
– | < 0.2 nM | > 50000 nM | < 100 nM | – | – | – | CNc1cc(Nc2cccn([C@H]3CC[C@](C)(OC)CC3)c2=O)nc2c(C(=O)N[C@@H]3CC[C@H]3OC)cnn12 [I-959] | A (percent inhibition at 10 μM lower than 50) | A (percent inhibition at 10 μM lower than 50)
– | < 0.2 nM | > 50000 nM | < 100 nM | – | < 50% | < 50% | CNc1cc(-c2cn(C3CC3)c3ncccc23)nc2c(C(=O)NC3CC3)cnn12 [I-960, N-cyclopropyl-5-(1-cyclopropyl-1H-pyrrolo[2,3-b]pyridin-3-yl)-7-(methylamino)pyrazolo[1,5-a]pyrimidine-3-carboxamide] | – | –
– | < 0.2 nM | > 50000 nM | < 100 nM | – | < 50% | < 50% | CNc1cc(-c2cn(C3CC3)c3ncccc23)nc2c(C(=O)N[C@@H]3C[C@@H]3F)cnn12 [I-961, 5-(1-cyclopropyl-1H-pyrrolo[2,3-b]pyridine-3-yl)-N-((1R,2S)-2-fluorocyclopropyl)-7-(methylamino)pyrazolo[1,5-a]pyrimidine-3-carboxamide] | – | –
– | < 0.2 nM | > 50000 nM | < 100 nM | – | < 50% | < 50% | CNc1cc(Nc2cccn(C3CCCCC3)c2=O)nc2c(C(=O)N[C@@H]3CC[C@@H]3O)cnn12 [I-1000] | – | –
– | < 0.2 nM | > 50000 nM | < 100 nM | – | – | – | CNc1cc(Nc2cccn(C3CCCCC3)c2=O)nc2c(C(=O)N[C@@H]3CC[C@H]3O)cnn12 [I-1002] | A (percent inhibition at 10 μM lower than 50) | A (percent inhibition at 10 μM lower than 50)
